Experimental data published in publication PMC4999862, “Site-specific Isopeptide Bridge Tethering of Chimeric gp41 N-terminal Heptad Repeat Helical Trimers for the Treatment of HIV-1 Infection” (Scientific Reports, 2016).
Like-named read-outs stand apart in the source and are kept apart here. Bridge positions count the residues as written; N and C are the ends. I, II: the chains in the order shown.

Assays:
[1] = tested on: HIV-1 IIIB (subtypes B, X4)
Method: (§1) Briefly, 1 × 10^4 MT-2 cells were infected with an HIV-1 strain (100 times the half-maximal tissue culture infective dose) in 200 μL of culture medium with or without the serially diluted test compounds overnight. Assay plates were incubated for 72 h, after which 100 μL of culture supernatant was collected from each well and assayed for p24 antigen using ELISA as described previously. The EC50 value of each test compound was calculated using Calcusyn software.

[2] = tested on: HIV-1 BaL (subtypes B, R5)
Method: as §1

HIV-1NL4-3(D36G) = conditions: read-out: EC50 against NL4-3 D36G; T20-sensitive strain; MT-2 cells, p24 ELISA; mean ± SD of three independent experiments
Method: as §1

[3] = tested on: NL4-3 mutant (36G)V38A/N42T; conditions: read-out: EC50 against NL4-3 (36G)V38A/N42T; T20-resistant strain; MT-2 cells, p24 ELISA; mean ± SD of three independent experiments
Method: as §1

[4] = tested on: NL4-3 mutant (36G)V38E/N42S; conditions: read-out: EC50 against NL4-3 (36G)V38E/N42S; T20-resistant strain; MT-2 cells, p24 ELISA; mean ± SD of three independent experiments
Method: as §1

[5] = tested on: T20-sensitive and -resistant HIV-1 NL4-3 strains; conditions: read-out: EC50 values against both T20-sensitive and -resistant strains; range over the six NL4-3 strains of Table 2
Method: as §1

[6] = tested on: NL4-3 mutant (36G)V38A/N42D; conditions: read-out: EC50 against NL4-3 (36G)V38A/N42D; T20-resistant strain; MT-2 cells, p24 ELISA; mean ± SD of three independent experiments
Method: as §1

[7] = tested on: NL4-3 mutant (36G)N42T/N43K; conditions: read-out: EC50 against NL4-3 (36G)N42T/N43K; T20-resistant strain; MT-2 cells, p24 ELISA; mean ± SD of three independent experiments
Method: as §1

NL4-3 mutant (36G)V38A = conditions: read-out: EC50 against NL4-3 (36G)V38A; T20-resistant strain; MT-2 cells, p24 ELISA; mean ± SD of three independent experiments
Method: as §1

[8] = target: T1, C34 (HIV-1 gp41 CHR peptide) (Human immunodeficiency virus type 1 group M subtype B, UniProt P04578); format: binding; conditions: CD, equimolar mixture 10 μM in PBS pH 7.4; θ222nm of 33000 for 100 % helicity
[9] = Metabolic stability in liver homogenate; format: in vitro ADME; conditions: rat liver homogenate, 20 μM, reversed-phase HPLC, UV 210 nm
Method: (§2) Three male SD rats weighing approximately 200 g each were obtained from the Animal Center of Beijing Institute of Pharmacology & Toxicology and were used for the metabolic stability assay. Animals were treated in accordance with the Animal Welfare Act and the “Guide for the Care and Use of Laboratory Animals” (NIH Publication 86-23, revised 1985). Preparation of Samples.Calibration samples were prepared by mixing various concentrations of each test compound ranging from 4 to 150 μM in H2O with rat plasma or tissue homogenate at a volume ratio of 100 μL:100 μL (Supplementary Figs S5–S7). Each test sample (100 μL) was spiked with 100 μL of acetonitrile containing 0.1% TFA. The mixture was vortexed and centrifuged at 18,000 g for 10 min. Then, the supernatant was transferred to HPLC autosampler vials, and aliquots (10 μL) were injected into the HPLC system. […] The mobile phase was composed of solvent A (water containing 0.1% TFA) and solvent B (70% acetonitrile and 0.1% TFA). […] The HPLC analysis was performed on a Waters X-Bridge C8 column (4.6 × 250 mm, 5 μm, 300 Å) at ambient temperature upon injection of 20 μL of each standard and/or sample to obtain the chromatogram. The only exception was for (IZ14N24N)3 in plasma and kidney homogenate, which was analyzed using a Phenomenex Jupiter C4 column (4.6 × 250 mm, 5 μm, 300 Å).

[10] = tested on: HIV-1 Env-mediated cell-cell fusion (HL2/3 effector cells, TZM-bl target cells); conditions: for EC50: read-out: EC50 (nM) for cell-cell fusion, HL2/3 effector + TZM-bl target cells, 6 h at 37 °C, luciferase read-out, mean ± SD of three independent experiments
Method: The inhibitory activities of these peptides on HIV-1 Env-mediated cell-cell fusion were determined as described previously. Effector cells were HL2/3 cells, which stably express HIV Gag, Env, Tat, Rev, and Nef proteins at the cell surface (contributed by Drs. Barbara Felber and George Pavlakis). TZM-bl cells, which express high levels of CD4 and coreceptors, were used as target cells (contributed by Drs. John C. Kappes and Xiaoyun Wu). HL2/3 cells and TZM-b1 cells were obtained from the NIH AIDS Reference and Reagent Program. TZM-bl cells (2.5 × 10^4/well) were plated in a 96-well plate (Corning Costar) and cultured overnight at 37 °C in 5% CO2. Thereafter, serially diluted inhibitors were added (20 μL/well), followed by the addition of HL2/3 cells (7.5 × 10^4/well). After incubation for 6 h at 37 °C in 5% CO2, fusion efficiency was determined by measuring the luciferase activity using the Luciferase Assay System (Promega, Madison, WI) on a SpectraMax M5 plate reader (Molecular Devices, Sunnyvale, CA).

in vitro = format: cell-based; conditions: human; uninfected MT-2 cells, XTT assay; read-out: CC50 (half maximal cytotoxic concentration)
Method: The cytotoxic effect of the compounds on MT-2 cells was determined using the XTT assay as described previously.

[11] = target: T1, C34 (HIV-1 gp41 CHR peptide); assay: Native-PAGE of N-peptides, C34 and their complexes; format: binding; conditions: equimolar mixture with C34, 37 °C 30 min, PBS pH 7.2, 12% Tris-glycine gel, Coomassie
Method: Equimolar mixtures of C34 and N-peptides (80 μM in PBS, pH 7.2) were incubated at 37 °C for 30 min. After mixing with 1: 1 Tris-glycine native sample buffer (BioRad, Hercules, CA), the individual N- and C- peptides and the mixture (40 μM in PBS, pH 7.2) were loaded (25 μL in each well) onto 12% Tris-glycine gels. Gel electrophoresis was run under a constant voltage of 120 V at room temperature for 2.5 h. The gel was then stained with Coomassie blue R250.

[12] = Metabolic stability in kidney homogenate; format: in vitro ADME; conditions: rat kidney homogenate, 20 μM, reversed-phase HPLC, UV 210 nm
Method: as §2

[13] = CD spectroscopy and thermal denaturation of chimeric N-trimers; format: physicochemical; conditions: for Tm (°C): CD thermal denaturation at 222 nm, 15 °C to 90 °C, PBS pH 7.4, 10 μM; for Helicity (%): CD, PBS pH 7.4, 10 μM peptide
Method: All measurements were performed on an MOS-450 system (BioLogic, Claix, France) at a 4.0 nm bandwidth, 0.1 nm resolution, 0.1 cm path length, 4.0 s response time and 50 nm/min scanning speed. The individual N- and C-peptides as well as their equimolar mixtures were prepared in PBS (pH 7.4) at a final concentration of 10 μM and incubated at 37 °C for 30 min. Thermal denaturation was monitored by the ellipticity change at 222 nm by application of a thermal gradient from 15 °C to 90 °C with a 2 °C interval.

[14] = read-out: EC50 (nM) for inhibition HIV-1IIIB replication, MT-2 cells, 100 TCID50, 72 h, p24 ELISA, mean ± SD of three independent experiments
[15] = read-out: EC50 (nM) for inhibition HIV-1BaL replication, 100 TCID50, 72 h, p24 ELISA, mean ± SD of three independent experiments

T1 sequence (P04578 628-661): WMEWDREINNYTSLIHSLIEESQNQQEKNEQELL

Row | Substance | EC50 [1, 14] [nM] | EC50 [2, 15] [nM] | Helicity (%) of the 6HBs formed between chimeric N-peptides and C34 [8] [%] | EC50 [10] [nM] | CC50 (in vitro) [µM] | Tm (°C) [13] [°C] | Helicity (%) [13] [%] | also measured
1 | Enfuvirtide |  |  |  |  |  |  |  | EC50 ([1]; IIIB (subtypes B, X4, 72 h)): 4.9 ± 0.6 nM; EC50 ([2]; BaL (subtypes B, R5, 72 h)): 25.2 ± 1.9 nM
2 | I: Ac-EQEAIKKKIEAIEKAIEAQQHLLQLTVWGIKQLQARIL-NH2 / II: Ac-EQEAIKKKIEAIEKAIEAQQHLLQLTVWGIKQLQARIL-NH2 / III: Ac-EQEAIKKKIEAIEKAIEAQQHLLQLTVWGIKQLQARIL-NH2 (amide I:8-III:13, I:13-II:8, II:13-III:8) [(IZ14N24N)3] | 0.4 ± 0.01 | 3.2 ± 0.9 | 87 | 2.79 ± 0.1 | > 20 | > 90 | 100 | EC50 (HIV-1NL4-3(D36G)): 1.3 ± 0.2 nM; EC50 [3]: 1.3 ± 0.8 nM; EC50 [4]: 1.2 ± 0.2 nM; EC50 [5]: 0.7 to 3.3 nM; EC50 [6]: 2.7 ± 0.1 nM; EC50 [7]: 3.3 ± 0.1 nM; EC50 (NL4-3 mutant (36G)V38A): 0.7 ± 0.1 nM; stability in liver homogenate for 24 h [9]: highly stable; fold greater cell-cell fusion inhibitory activity than (IZ14N17)3 ([10]; relative to (IZ14N17)3): about 8 fold; complex formation with C34 in N-PAGE [11]: form a stable complex with C34; stability in kidney homogenate for 24 h [12]: highly stable
3 | I: Ac-EQEAIKKKIEAIEKLLQLTVWGIKQLQARIL-NH2 / II: Ac-EQEAIKKKIEAIEKLLQLTVWGIKQLQARIL-NH2 / III: Ac-EQEAIKKKIEAIEKLLQLTVWGIKQLQARIL-NH2 (amide I:8-III:13, I:13-II:8, II:13-III:8) [(IZ14N17)3] | 1.9 ± 1.2 | 3.3 ± 2 | 74 | 21.9 ± 2.4 | 7.3 ± 1.7 | > 90 | 100 | 
4 | I: Ac-EQEAIKKKIEAIEKLLQLTVWGIKQLQARILAVERYLK-NH2 / II: Ac-EQEAIKKKIEAIEKLLQLTVWGIKQLQARILAVERYLK-NH2 / III: Ac-EQEAIKKKIEAIEKLLQLTVWGIKQLQARILAVERYLK-NH2 (amide I:8-III:13, I:13-II:8, II:13-III:8) [(IZ14N24C)3] | 4 ± 2.3 | 6.6 ± 0.2 | 76 | 6.4 ± 1.6 | 7.7 ± 0.8 | > 90 | 100 | 
5 | I: Ac-IKKEQEAIKKKIEAIEKLLQLTVWGIKQLQARIL-NH2 / II: Ac-IKKEQEAIKKKIEAIEKLLQLTVWGIKQLQARIL-NH2 / III: Ac-IKKEQEAIKKKIEAIEKLLQLTVWGIKQLQARIL-NH2 (amide I:11-II:16, I:16-III:11, II:11-III:16) [(IZ17N17)3] | 4.1 ± 3.1 | 9 ± 0.2 | 70 | 46 ± 4.6 | 4 ± 0.3 | > 90 | 98 | 
6 | I: Ac-IKKKIEAIEKAIEAQQHLLQLTVWGIKQLQARIL-NH2 / II: Ac-IKKKIEAIEKAIEAQQHLLQLTVWGIKQLQARIL-NH2 / III: Ac-IKKKIEAIEKAIEAQQHLLQLTVWGIKQLQARIL-NH2 (amide I:4-II:9, I:9-III:4, II:4-III:9) [(IZ10N24N)3] | 1.8 ± 0.7 | 4.7 ± 0.5 | 80 | 28.3 ± 4.3 | 6.9 ± 1 | > 90 | 100 | 
7 | I: Ac-IKKKIEAIEKLLQLTVWGIKQLQARIL-NH2 / II: Ac-IKKKIEAIEKLLQLTVWGIKQLQARIL-NH2 / III: Ac-IKKKIEAIEKLLQLTVWGIKQLQARIL-NH2 (amide I:4-II:9, I:9-III:4, II:4-III:9) [(IZ10N17)3] | 59.4 ± 9.1 | 74.7 ± 6 | 73 | 190 ± 4.6 | 2 ± 0.2 | > 90 | 75 | fold less potency than (IZN17R)3 in cell-cell fusion ([10]; relative to (IZN17R)3): 17 fold; complex formation with C34 in N-PAGE [11]: two bands with nearly the same density
8 | I: Ac-IKKKIEAIEKLLQLTVWGIKQLQARILAVERYLK-NH2 / II: Ac-IKKKIEAIEKLLQLTVWGIKQLQARILAVERYLK-NH2 / III: Ac-IKKKIEAIEKLLQLTVWGIKQLQARILAVERYLK-NH2 (amide I:4-II:9, I:9-III:4, II:4-III:9) [(IZ10N24C)3] | 4.4 ± 0.4 | 11.4 ± 5.5 | 63 | 13.8 ± 1.5 | 2 ± 0.4 | > 90 | 100 | 
